Test [1] deals with T1, Type II 5α-Reductase from Human Prostate (Homo sapiens, UniProt P31213).
T1 construct: The same procedure as above was used for preparations using tissue from prostate surgery; from tissue; host or cells: human prostate tissue from surgery, homogenate, 100,000×g pellet
T1 sequence (P31213 1-254): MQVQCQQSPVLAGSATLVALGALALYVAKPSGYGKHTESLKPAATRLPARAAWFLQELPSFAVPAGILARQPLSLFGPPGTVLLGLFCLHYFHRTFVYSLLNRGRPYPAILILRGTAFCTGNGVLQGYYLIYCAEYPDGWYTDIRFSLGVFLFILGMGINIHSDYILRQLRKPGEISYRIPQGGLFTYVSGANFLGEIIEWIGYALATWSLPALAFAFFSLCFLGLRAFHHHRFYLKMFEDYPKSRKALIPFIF
The test is described as follows: Human Type II 5α-reductase assay (conversion of [3H]-testosterone to 5α-reduced metabolites). In kind it is biochemical. The following applies: pH 5.5, 0.3 μM; sodium acetate pH 5.5, 25°, 30 min; compared to control reaction mixtures; read-out: percent inhibition of Type II AR.

The target in test [2] is T2, Type I 5α-Reductase from Human Scalp (Homo sapiens, UniProt P18405).
T2 construct: Scalp punch biopsies from graft recipient sites were obtained from human hair transplant procedures; from tissue; host or cells: human scalp punch biopsies (hair transplant graft recipient sites), homogenate, 100,000×g pellet
T2 sequence (P18405 1-259): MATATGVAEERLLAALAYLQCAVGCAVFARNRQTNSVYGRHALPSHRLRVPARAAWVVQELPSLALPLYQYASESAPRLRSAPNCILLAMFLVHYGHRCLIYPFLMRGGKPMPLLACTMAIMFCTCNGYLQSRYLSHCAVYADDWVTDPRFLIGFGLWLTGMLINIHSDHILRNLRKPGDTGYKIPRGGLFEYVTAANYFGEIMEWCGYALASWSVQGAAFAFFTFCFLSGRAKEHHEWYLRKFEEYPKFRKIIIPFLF
Briefly: Human Type I 5α-reductase assay (conversion of [3H]-testosterone to 5α-reduced metabolites). The following applies: 50 nM [3H]-testosterone, pH 7.5, 25°, 180 min, compared to control reaction mixtures; for inhibition at 0.3 µM: pH 7.5, 0.3 μM, read-out: percent inhibition of Type I AR. In kind it is biochemical.

In the case of `C[C@]12CCC(=O)N[C@@H]1CCc1cc(Sc3ccc(Cl)cc3)ccc12` [Example 5, (+)-(4aR)-(10bR)-8-(4-chlorophenylthio)-10b-methyl-1,2,3,4,4a,5,6,10b-octahydrobenzo [f]quinolin-3-one], the inhibition (usually the share of the control response that was lost under treatment) at 0.3 µM in test [1] came to 0%; in test [2] it was 44%.

On to `Cc1ccc(Sc2ccc3c(c2)CC[C@H]2NC(=O)CC[C@]32C)cc1` [Example 6, (+)-(4aR)-(10bR)-8-(4-methylphenylthio)-10b-methyl-1,2,3,4,4a,5,6,10b-octahydrobenzo [f]quinolin-3-one], for which the inhibition at 0.3 µM in test [1] came to 23%; in test [2], 11%.

Regarding `C[C@]12CCC(=O)N[C@@H]1CCc1cc(Sc3ccccc3Cl)ccc12` [Example 7], the inhibition at 0.3 µM worked out at 42% in test [1] and 49% in test [2].

For the molecule `C[C@]12CCC(=O)N[C@@H]1CCc1cc(Sc3cccc(Cl)c3)ccc12` [Example 8, (+)-(4aR)-(10bR)-8-(3-chlorophenylthio)-10b-methyl-1,2,3,4,4a,5,6,10b-octahydrobenzo[f]quinolin-3-one], the inhibition at 0.3 µM in test [1] was determined as 59%; in test [2], 22%.

Consider `Cc1ccccc1Sc1ccc2c(c1)CC[C@H]1NC(=O)CC[C@]21C` [Example 9, (+)-(4aR)-(10bR)-8-(2-methylphenylthio)-10b-methyl-1,2,3,4,4a,5,6,10b-octahydrobenzo[f]quinolin-3-one], for which the inhibition at 0.3 µM in test [1] was determined as 31%; in test [2], 3%.

`Cc1cccc(Sc2ccc3c(c2)CC[C@H]2NC(=O)CC[C@]32C)c1` [Example 10, (+)-(4aR)-(10bR)-8-(3-methylphenylthio)-10b-methyl-1,2,3,4,4a,5,6,10b-octahydrobenzo[f]quinolin-3-one]: the inhibition at 0.3 µM in test [1] came to 40%; in test [2] it was 22%.

As to `C[C@]12CCC(=O)N[C@@H]1CCc1cc(Sc3cccc4ccccc34)ccc12` [Example 11, (+)-(4aR)-(10bR)-8-(1-naphthylthio)-10b-methyl-1,2,3,4,4a,5,6,10b-octahydrobenzo[f]quinolin-3-one], the inhibition at 0.3 µM was 40% in test [1] and 87% in test [2].

Take `COc1ccccc1Sc1ccc2c(c1)CC[C@H]1NC(=O)CC[C@]21C` [Example 12, (+)-(4aR)-(10bR)-8-(2-methoxyphenylthio)-10b-methyl-1,2,3,4,4a,5,6,10b-octahydrobenzo[f]quinolin-3-one]: the figures for the inhibition at 0.3 µM in test [1] and in test [2] were 22% and 16%, respectively.

`COc1ccc(Sc2ccc3c(c2)CC[C@H]2NC(=O)CC[C@]32C)cc1` [Example 13, (+)-(4aR)-(10bR)-8-(4-methoxyphenylthio)-10b-methyl-1,2,3,4,4a,5,6,10b-octahydrobenzo[f]quinolin-3-one]: the inhibition at 0.3 µM in test [1] is 22%; in test [2], 11%.

Take `C[C@]12CCC(=O)N[C@@H]1CCc1cc(Sc3ccc(F)cc3)ccc12` [Example 14, (+)-(4aR)-(10bR)-8-(4-fluorophenylthio)-10b-methyl-1,2,3,4,4a,5,6,10b-octahydrobenzo[f]quinolin-3-one]: the inhibition at 0.3 µM in test [1] was 25%; in test [2] it was 37%.

Consider `COc1cccc(Sc2ccc3c(c2)CC[C@H]2NC(=O)CC[C@]32C)c1` [Example 15, (4aR)-(10bR)-8-(3-methoxyphenylthio)-10b-methyl-1,2,3,4,4a,5,6,10b-octahydrobenzo[f]quinolin-3-one], for which the inhibition at 0.3 µM turned out to be 39% in test [1] and 23% in test [2].

`C[C@]12CCC(=O)N[C@@H]1CCc1cc(Sc3cccc(F)c3)ccc12` [Example 16, (+)-(4aR)-(10bR)-8-(3-fluorophenylthio)-10b-methyl-1,2,3,4,4a,5,6,10b-octahydrobenzo[f]quinolin-3-one]: the inhibition at 0.3 µM in test [1] stood at 28%; in test [2], 14%.

Regarding `C[C@]12CCC(=O)N[C@@H]1CCc1cc(Sc3ccccc3F)ccc12` [Example 17, (+)-(4aR)-(10bR)-8-(2-fluorophenylthio)-10b-methyl-1,2,3,4,4a,5,6,10b-octahydrobenzo[f]quinolin-3-one], the figures for the inhibition at 0.3 µM in test [1] and in test [2] were 19% and 29%, respectively.

Consider `C[C@]12CCC(=O)N[C@@H]1CCc1cc(Sc3cnc4ccccc4c3)ccc12` [Example 18, (4aR)-(10bR)-8-(3-quinolinylthio)-10b-methyl-1,2,3,4,4a,5,6,10b-octahydrobenzo[f]quinolin-3-one], for which the inhibition at 0.3 µM in test [1] turned out to be 15%; in test [2] it was 7%.

As to `C[C@]12CCC(=O)N[C@@H]1CCc1cc(Sc3ccc4ccccc4n3)ccc12` [Example 19, (4aR)-(10bR)-8-(2-quinolinylthio)-10b-methyl-1,2,3,4,4a,5,6,10b-octahydrobenzo[f]quinolin-3-one], the inhibition at 0.3 µM in test [1] amounted to 56%; in test [2] it was 59%.

For `C[C@]12CCC(=O)N[C@@H]1CCc1cc(Sc3cccc4cccnc34)ccc12` [Example 20, (+)-(4aR)-(10bR)-8-(8-quinolinylthio)-10b-methyl-1,2,3,4,4a,5,6,10b-octahydrobenzo[f]quinolin-3-one], the inhibition at 0.3 µM was determined as 48% in test [1] and 22% in test [2].

As for `CN1C(=O)CC[C@]2(C)c3ccc(-c4cccc(F)c4F)cc3CC[C@@H]12` [Example 26, (+)-(4aR)-(10bR)-4-methyl-8-(2,3-difluorophenyl)-10b-methyl-1,2,3,4,4a,5,6,10b-octahydrobenzo[f]quinolin-3-one], the inhibition at 0.3 µM in test [2] stood at 86%.

`CN1C(=O)CC[C@]2(C)c3ccc(-c4ccc(F)c(F)c4)cc3CC[C@@H]12` [Example 27, (+)-(4aR)-(10bR)-4-methyl-8-(3,4-difluorophenyl)-10b-methyl-1,2,3,4,4a,5,6,10b-octahydrobenzo[f]quinolin-3-one]: in test [2], the inhibition at 0.3 µM stood at 92%.

For the molecule `CN1C(=O)CC[C@]2(C)c3ccc(Sc4ccccc4Cl)cc3CC[C@@H]12` [Example 99, (+)-(4aR)-(10bR)-4,10b-dimethyl-8-(2-chlorophenylthio)-1,2,3,4,-4a,5,6,10b-octahydrobenzo[f]quinolin-3-one], the inhibition at 0.3 µM in test [2] came out at 88%.

Take `CN1C(=O)CC[C@]2(C)c3ccc(-c4ccc([N+](=O)[O-])cc4)cc3CC[C@@H]12` [Example 119, (+)-(4aR)-(10bR)-4-methyl-8-(4-nitrophenyl)-10b-methyl-1,2,3,4,4a,5,6,10b-octahydrobenzo[f]quinolin-3-one]: in test [2], the inhibition at 0.3 µM came to 84%.

Take `C[C@]12CCC(=O)N[C@@H]1CCc1cc(-c3cnc4ccccc4c3)ccc12` [Example 196, (+)-(4aR)-(10bR)-8-(3-quinolinyl)-10b-methyl-1,2,3,4,4a,-5,6,10b-octahydrobenzo[f]quinolin-3-one]: the “percent inhibition of Type I AR” value in test [2] (0.3 μM) is 11%.

In the case of `CN1C(=O)CC[C@]2(C)c3ccc(NC(=O)c4ccc(N)cc4)cc3CC[C@@H]12` [Example 271, (4aR)-(10bR)-4,10b-dimethyl-8-(4-aminobenzoylamino)-1,2,3,4,4a,5,6,10b-octahydrobenzo[f]quinolin-3-one], the inhibition at 0.3 µM in test [1] is 36%.

For the molecule `CN1C(=O)CC[C@]2(C)c3ccc(-c4cccc(NC(=O)c5ccccc5)c4)cc3CC[C@@H]12` [Example 273, (+)-(4aR)-(10bR)-4-methyl-8-(3-[benzoylamino]phenyl)-10b-methyl-1,2,3,4,4a,5,6,10b-octahydrobenzo[f]quinolin-3-one], the inhibition at 0.3 µM in test [1] came out at 27%.

As to `CN1C(=O)CC[C@]2(C)c3ccc(-c4cccs4)cc3CC[C@@H]12` [Example 278, (4aR)-(10bR)-4,10b-dimethyl-8-(2-thiophenyl)-1,2,3,4,4a,5,6,10b-octahydrobenzo[f]quinolin-3-one], the inhibition at 0.3 µM in test [1] was 28%.

On to `CN1C(=O)CC[C@]2(C)c3ccc(/C=C/c4cncc5ccccc45)cc3CC[C@@H]12` [Example 281, (4aR)-(10bR)-4,10b-dimethyl-8-(2-[4-isoquinolinyl]ethenyl)-1,2,3,4,4a,5,6,10b-octahydrobenzo[f]quinolin-3-one], for which, in test [1], the inhibition at 0.3 µM came out at 44%.

For `CN1C(=O)CC[C@]2(C)c3ccc(/C=C/c4cnc5ccccc5c4)cc3CC[C@@H]12` [Example 282, (4aR)-(10bR)-4,10b-dimethyl-8-(2-[3-quinolinyl]ethenyl)-1,2,3,4,4a,5,6,10b-octahydrobenzo[f]quinolin-3-one], the inhibition at 0.3 µM in test [1] turned out to be 37%.

Consider `CN1C(=O)CC[C@]2(C)c3ccc(/C=C/c4ccc5ccccc5n4)cc3CC[C@@H]12` [Example 283, (4aR)-(10bR)-4,10b-dimethyl-8-(2-[2-quinolinyl]ethenyl)-1,2,3,4,4a,5,6,10b-octahydrobenzo[f]quinolin-3-one], for which the inhibition at 0.3 µM in test [1] stood at 37%.

Consider `C[C@]12CCC(=O)N[C@@H]1CCc1cc(C(=O)Nc3ccccc3)ccc12` [Example 291, (+)-(4aR)-(10bR)-8-phenylcarboxamido-10b-methyl-1,2,3,4,4a,5,6,10b-octahydrobenzo[f]quinoline-3-one], for which the inhibition at 0.3 µM in test [1] amounted to 19%.

These data come from patent US5622962A, “5α-reductase inhibitors” (priority 1995, dated 1997).
